Measured values: US9884842B2, “Combretastatin analogs” (The Board of Trustees of the University of Arkansas, priority 2013, dated 2018)

Assays:
OVCAR-3 = experiment: cells; conditions: Homo sapiens; for GI50: OVCAR-3; for CC50: OVCAR-3, read-out: LC50
NCI-H226 = experiment: NCI growth inhibition and cytotoxicity screen, Lung Cancer panel; conditions: Homo sapiens; for GI50: NCI-H226; for CC50: NCI-H226, read-out: LC50
HL-60(TB) = experiment: cells; conditions: Homo sapiens; for GI50: HL-60; for CC50: HL-60, read-out: LC50
HCT-116 = experiment: NCI growth inhibition and cytotoxicity screen, Colon Cancer panel; conditions: Homo sapiens; for GI50: HCT-116; for CC50: HCT-116, read-out: LC50
SN12C = experiment: NCI growth inhibition and cytotoxicity screen, Renal Cancer panel; conditions: Homo sapiens; for CC50: read-out: LC50
NCI-H23 = experiment: NCI growth inhibition and cytotoxicity screen, Lung Cancer panel; conditions: Homo sapiens; for GI50: NCI-H23; for CC50: NCI-H23, read-out: LC50
NCI/ADR-RES = experiment: NCI growth inhibition and cytotoxicity screen, Ovarian Cancer panel; conditions: Homo sapiens; for CC50: read-out: LC50
HS 578T = experiment: NCI growth inhibition and cytotoxicity screen, Breast Cancer panel; conditions: Homo sapiens; for CC50: read-out: LC50
IGROV1 = experiment: NCI growth inhibition and cytotoxicity screen, Ovarian Cancer panel; conditions: Homo sapiens; for GI50: IGROV-1; for CC50: IGROV-1, read-out: LC50
KM12 = experiment: NCI growth inhibition and cytotoxicity screen, Colon Cancer panel; conditions: Homo sapiens; for GI50: KM12; for CC50: KM12, read-out: LC50
SK-OV-3 = experiment: NCI growth inhibition and cytotoxicity screen, Ovarian Cancer panel; conditions: Homo sapiens; for GI50: SK-OV-3; for CC50: SK-OV-3, read-out: LC50
MOLT-4 = experiment: NCI growth inhibition and cytotoxicity screen, Leukemia panel; conditions: Homo sapiens; for GI50: MOLT-4; for CC50: MOLT-4, read-out: LC50
SK-MEL-28 = experiment: NCI growth inhibition and cytotoxicity screen, Melanoma panel; conditions: Homo sapiens; for GI50: SK-MEL-28; for CC50: SK-MEL-28, read-out: LC50
COLO 205 = experiment: NCI growth inhibition and cytotoxicity screen, Colon Cancer panel; conditions: Homo sapiens; for GI50: COLO 205; for CC50: COLO 205, read-out: LC50
UO-31 = experiment: NCI growth inhibition and cytotoxicity screen, Renal Cancer panel; conditions: Homo sapiens; for CC50: UO-31, read-out: LC50
786-0 = experiment: as above; conditions: Homo sapiens; for GI50: 786-0; for CC50: 786-0, read-out: LC50
BT-549 = experiment: NCI growth inhibition and cytotoxicity screen, Breast Cancer panel; conditions: Homo sapiens; for GI50: BT-549; for CC50: BT-549, read-out: LC50
RPMI-8226 = experiment: NCI growth inhibition and cytotoxicity screen, Leukemia panel; conditions: Homo sapiens; for GI50: RPMI-8226; for CC50: RPMI-8226, read-out: LC50
SNB-19 = experiment: NCI growth inhibition and cytotoxicity screen, CNS Cancer panel; conditions: Homo sapiens; for GI50: SNB-19; for CC50: SNB-19, read-out: LC50
SNB-75 = experiment: as above; conditions: Homo sapiens; for GI50: SNB-75; for CC50: SNB-75, read-out: LC50
LOX-IMVI = experiment: NCI growth inhibition and cytotoxicity screen, Melanoma panel; conditions: Homo sapiens; for CC50: read-out: LC50
CCRF-CEM = experiment: NCI growth inhibition and cytotoxicity screen, Leukemia panel; conditions: Homo sapiens; for CC50: read-out: LC50
A549/ATCC = experiment: NCI growth inhibition and cytotoxicity screen, Lung Cancer panel; conditions: Homo sapiens; for GI50: A549; for CC50: A549, read-out: LC50
T-47D = experiment: NCI growth inhibition and cytotoxicity screen, Breast Cancer panel; conditions: Homo sapiens, T47D; for CC50: read-out: LC50
PC-3 = experiment: NCI growth inhibition and cytotoxicity screen, Prostate Cancer panel; conditions: Homo sapiens; for GI50: PC-3; for CC50: PC-3, read-out: LC50
HOP-92 = experiment: NCI growth inhibition and cytotoxicity screen, Lung Cancer panel; conditions: Homo sapiens; for GI50: HOP-92; for CC50: HOP-92, read-out: LC50
SF-539 = experiment: NCI growth inhibition and cytotoxicity screen, CNS Cancer panel; conditions: Homo sapiens; for GI50: SF-539; for CC50: SF-539, read-out: LC50
NCI-H522 = experiment: NCI growth inhibition and cytotoxicity screen, Lung Cancer panel; format: cell-based; conditions: Homo sapiens, Table 2, cell line NCI-H522 (Lung Cancer); for CC50: read-out: LC50 (the source's name)
HCC-2998 = experiment: NCI growth inhibition and cytotoxicity screen, Colon Cancer panel; conditions: Homo sapiens; for GI50: HCC 2998; for CC50: HCC 2998, read-out: LC50
M14 = experiment: NCI growth inhibition and cytotoxicity screen, Melanoma panel; conditions: Homo sapiens; for GI50: M14; for CC50: M14, read-out: LC50
SW-620 = experiment: NCI growth inhibition and cytotoxicity screen, Colon Cancer panel; conditions: Homo sapiens; for GI50: SW-620; for CC50: SW-620, read-out: LC50
HOP-62 = experiment: NCI growth inhibition and cytotoxicity screen, Lung Cancer panel; conditions: Homo sapiens; for GI50: HOP-62; for CC50: HOP-62, read-out: LC50

## COc1cc(OC)cc(/C(C#N)=C/c2ccc3ccccc3n2)c1 [PNR-4-84, (Z)-2-(3,5-dimethoxyphenyl)-3-(quinolin-2-yl)acrylonitrile]
OVCAR-3
  GI50: 309 nM
  CC50: 34000 nM
NCI-H226
  GI50: 10800 nM
  CC50: > 100000 nM
HL-60(TB)
  GI50: 270 nM
  CC50: > 100000 nM
HCT-116
  GI50: 416 nM
  CC50: 47300 nM
SN12C
  GI50: 661 nM
  CC50: > 100000 nM
NCI-H23
  GI50: 983 nM
  CC50: > 100000 nM
NCI/ADR-RES
  GI50: 283 nM
  CC50: > 100000 nM
HS 578T
  GI50: 700 nM
  CC50: > 100000 nM
IGROV1
  GI50: 958 nM
  CC50: > 100000 nM
KM12
  GI50: 425 nM
  CC50: > 100000 nM
SK-OV-3
  GI50: 804 nM
  CC50: > 100000 nM
MOLT-4
  GI50: 419 nM
  CC50: > 100000 nM
SK-MEL-28
  GI50: 896 nM
  CC50: > 100000 nM
COLO 205
  GI50: 374 nM
  CC50: > 100000 nM
UO-31; UO-31
  GI50: 573 nM
UO-31
  CC50: > 100000 nM
786-0
  GI50: 501 nM
  CC50: > 100000 nM
BT-549
  GI50: 342 nM
  CC50: 80600 nM
RPMI-8226
  GI50: 433 nM
  CC50: > 100000 nM
SNB-19
  GI50: 728 nM
  CC50: > 100000 nM
SNB-75
  GI50: 311 nM
  CC50: > 100000 nM
LOX-IMVI
  GI50: 610 nM
  CC50: > 100000 nM
CCRF-CEM
  GI50: 332 nM
  CC50: > 100000 nM
A549/ATCC
  GI50: 649 nM
  CC50: > 100000 nM
T-47D
  GI50: 1230 nM
  CC50: > 100000 nM
PC-3
  GI50: 584 nM
  CC50: > 100000 nM
HOP-92
  GI50: 542 nM
  CC50: > 100000 nM
SF-539
  GI50: 286 nM
  CC50: 8030 nM
NCI-H522
  GI50: 94 nM
  CC50: > 100000 nM
HCC-2998
  GI50: 1420 nM
  CC50: > 100000 nM
M14
  GI50: 360 nM
  CC50: > 100000 nM
SW-620
  GI50: 357 nM
  CC50: > 100000 nM
HOP-62
  GI50: 959 nM
  CC50: > 100000 nM

## COc1cc(OC)cc(/C(C#N)=C/c2cnc3ccccc3c2)c1 [PNR-4-85, (Z)-3-(quinolin-3-yl)-2-(3,5-dimethoxyphenyl)acrylonitrile]
OVCAR-3
  GI50: 279 nM
  CC50: > 100000 nM
NCI-H226
  GI50: 62200 nM
  CC50: > 100000 nM
HL-60(TB)
  GI50: 234 nM
  CC50: > 100000 nM
HCT-116
  GI50: 420 nM
  CC50: > 100000 nM
SN12C
  GI50: 661 nM
  CC50: > 100000 nM
NCI-H23
  GI50: 747 nM
  CC50: > 100000 nM
NCI/ADR-RES
  GI50: 224 nM
  CC50: > 100000 nM
HS 578T
  GI50: 715 nM
  CC50: > 100000 nM
IGROV1
  GI50: 3500 nM
  CC50: > 100000 nM
KM12
  GI50: 409 nM
  CC50: > 100000 nM
SK-OV-3
  GI50: 576 nM
  CC50: > 100000 nM
MOLT-4
  GI50: 378 nM
  CC50: > 100000 nM
SK-MEL-28
  GI50: 1400 nM
  CC50: > 100000 nM
COLO 205
  GI50: 398 nM
  CC50: 89900 nM
UO-31
  CC50: > 100000 nM
786-0
  GI50: 484 nM
  CC50: > 100000 nM
BT-549
  GI50: 388 nM
  CC50: > 100000 nM
RPMI-8226
  GI50: 332 nM
  CC50: > 100000 nM
SNB-19
  GI50: 614 nM
  CC50: > 100000 nM
SNB-75
  GI50: 224 nM
  CC50: > 100000 nM
LOX-IMVI
  GI50: 672 nM
  CC50: > 100000 nM
CCRF-CEM
  GI50: 332 nM
  CC50: > 100000 nM
A549/ATCC
  GI50: 556 nM
  CC50: > 100000 nM
T-47D
  GI50: 628 nM
  CC50: > 100000 nM
PC-3
  GI50: 506 nM
  CC50: > 100000 nM
HOP-92
  GI50: 3090 nM
  CC50: > 100000 nM
SF-539
  GI50: 289 nM
  CC50: > 100000 nM
NCI-H522
  GI50: 69 nM
  CC50: > 100000 nM
HCC-2998
  GI50: 1450 nM
  CC50: > 100000 nM
M14
  GI50: 310 nM
  CC50: > 100000 nM
SW-620
  GI50: 352 nM
  CC50: > 100000 nM
HOP-62
  GI50: 793 nM
  CC50: > 100000 nM
